Laboratory results taken from EP0511152A2, “Quinoxaline compounds, their preparation and use” (NOVO NORDISK A/S, priority 1991, dated 1992).
≈ marks a conversion by molar mass, not a printed value.

Assays:
[1] = tested on: quisqualic acid stimulated spreading depression in chicken retina; experiment: Spreading depression (Test 2); type: cell-based; conditions: Gallus gallus; concentration producing 50% maximal inhibition of quisqualic acid stimulated spreading depression; chick retina, quisqualate 1 µg/ml, 26°C
Description: (§1) The pharmacological properties of the compounds of the present invention can be illustrated by determining their capability for displacing radioactively labelled 2-amino3-hydroxy-5-methyl-4-isoxazolepropionic acid (AMPA) from the AMPA type receptors.
The antagonism is measured by determining the IC₅₀ value which represents the concentration which produces a 50% maximal inhibition of quisqualic acid stimulated spreading depression in chicken retina.
Spreading depression (Test 2)
Chicks (3-10 days old) were decapitated, the eyes enucleated and sectioned along the equatorial plane. After removal of the anterior chamber and the vitreous body, the posterior chamber of each eye was placed in a small petri dish containing a physiological saline solution (P.S.S.) of the following composition (mM) NaCl (100), KCl (6.0), CaCl₂ (1.0), MgS0₄ (1.0), NaHCO₃ (30), NaH₂PO₄ (1.0), glucose (20).
The solution was saturated with 100% O₂ and maintained at 26°C.
The eyes are initially incubated in normal P.S.S. for 15-30 min. and then transferred to P.S.S. containing KCl (20 mM), NMDLA (30 µg/ml), quisqualate (1 µg/ml), kainate (1 µg/ml), or glycin (200 µg/ml). In these "stimulating solutions" S.D.s start spontaneously usually from the edge of the retina, and can be easily observed by eye. The time taken for an S.D. to start in each eye is measured.
After a further 15 minutes of incubation in normal P.S.S. the eyes are transferred to normal P.S.S. containing the test compound and incubated for 15 minutes. Thereafter the eyes are transferred to a "stimulating solution" containing the same concentration of the test compound. The time taken for an S.D. to start in each eye is again measured. The eyes are then placed back in normal P.S.S. and after 15 minutes the time taken for S.D. to start is again measured, in order to assess the degree of recovery from any drug effects.
An increase in the time taken for S.D. to start of 30 seconds more than the control time is considered 100% inhibition of S.D. The drug effects therefore are expressed as the percentage maximum response obtained for a given dose. The test value can be quoted therefore as the concentration (µg/ml) of test substance which produces a 50% maximal inhibition (IC₅₀).

AMPA type receptors = experiment: ³H-AMPA binding (Test 1); conditions: displacement of 50% of specific binding of ³H-AMPA (5 nM); rat cerebral cortical membrane homogenate, 0°C, 30 min
Description: as §1
The displacement activity of the compounds may be shown by determining the IC₅₀ value which represents the concentration (µg/ml) which causes a displacement of 50% of the specific binding of ³H-AMPA.
500 µl of thawed rat cerebral cortical membrane homogenate in Tris-HCl (30 mM), CaCl₂ (2.5 mM) and KSCN (1OO mM) pH 7.1 were incubated at 0°C for 30 min. with 25 µl ³H-AMPA (5 nM final concentration) and the test compound and buffer. Nonspecific binding was determined by incubation with L-glutamic acid (600 µM final concentration). The binding reaction was terminated by adding 5 ml of ice-cold buffer followed by filtration through Whatman GF/C glass fibre filters and 2x5 ml wash with ice-cold buffer. Bound radioactivity was measured by scintillation counting. IC₅₀ was determined by Hill analysis of at least four concentrations of test compound.

Row | SMILES | IC50 [1] | Test 1 IC50 (AMPA type receptors)
1 | NC(=O)CNS(=O)(=O)c1ccc2c(c1)c([N+](=O)[O-])cc1[nH]c(=O)c(=O)[nH]c12 [Example 21, 8-Carbamoylmethylsulfamoyl-6-nitrobenzo[f]quinoxaline-2,3(1H,4H)-dione] | 1 µg/mL (≈ 2.54 µM) | 0.16 µg/mL
2 | NC(=O)c1ccc2c(c1)c([N+](=O)[O-])cc1[nH]c(=O)c(=O)[nH]c12 [Example 14, 8-Carbamoyl-6-nitrobenzo[f]quinoxaline-2,3(1H,4H)-dione] | 0.41 µg/mL (≈ 1.37 µM) | 0.07 µg/mL
3 | N#Cc1cc2[nH]c(=O)c(=O)[nH]c2c2ccc(S(N)(=O)=O)cc12 [Example 11, 6-Cyano-8-sulfamoylbenzo[f]quinoxaline-2,3(1H,4H)-dione] | 0.54 µg/mL (≈ 1.71 µM) | 0.17 µg/mL
4 | O=c1[nH]c2cc([N+](=O)[O-])c3c(C(F)(F)F)cccc3c2[nH]c1=O [Example 8, 6-Nitro-7-trifluoromethylbenzo[f]quinoxaline-2,3-(1H,4H)-dione] | 1.3 µg/mL (≈ 4 µM) | 0.55 µg/mL
